Laboratory results from patent publication US9363996B2, “Compositions and method for blocking ethylene response in field crops using 3-(cy-clopropyl-l-enyl)-propanoic salt” (Yissum Research Development Company of the Hebrew …, priority 2009, dated 2016).

Legend:
wheat plants = experiment: Ethephon-induced flag leaf epinasty of wheat plants after spike heading; format: in vivo, wheat (Triticum turgidum var. 'Gdera'); conditions: WS-CPD 135 and 415 μg mL^−1 pretreatment; Ethephon 750 μL L^−1
Procedure: (1) Abscission—This is a very sensitive model system for studying the effects of plant hormones. Ethylene induces the process of abscission, while auxin delays it. In the laboratory the experimental system is based on plant organ explants, which include the abscission zone. Abscission is induced by exposure to ethylene and at the termination of the experiment the number of abscised organs, usually either leaf blades or petioles are counted and the fraction of abscission is calculated. In the case of fruit, the decrease in fruit retention force is analyzed. In cotton, when WS-CPD (the ethylene-action antagonist herein disclosed) is tested, the whole plants or explants are pretreated by spraying with the antagonist, dissolved in a phosphate buffer solution (10-20 mM, pH 7.0) including 0.1% commercially available Kinetic™ as surfactant, and left to incubate for a predetermined time, usually between 6 and 24 h. […] At the end of the experiment the percentage of abscission is determined. […] At the end of the experiment a dimethylsulfoxide (DMSO) extract of the plant tissue is prepared, and the chlorophyll content of the extract is determined by spectrophotometric analysis. […] The extent of ethylene-induced epinasty of leaves is determined by measuring the change of the angle between the petiole and the stem shoot or blade. […]

wheat seedlings = experiment: Third leaf growth of young wheat seedlings exposed to ethylene; format: in vivo, wheat (Triticum turgidum var. 'Gdera')
[1] = tested on: young cotton leaf explants; experiment: Ethylene-induced petiole abscission of young cotton leaf explants; format: in vivo, cotton (Gossyium hirsutum barbadense L.)
Procedure: (1) Abscission—This is a very sensitive model system for studying the effects of plant hormones. Ethylene induces the process of abscission, while auxin delays it. In the laboratory the experimental system is based on plant organ explants, which include the abscission zone. Abscission is induced by exposure to ethylene and at the termination of the experiment the number of abscised organs, usually either leaf blades or petioles are counted and the fraction of abscission is calculated. In the case of fruit, the decrease in fruit retention force is analyzed. In cotton, when WS-CPD (the ethylene-action antagonist herein disclosed) is tested, the whole plants or explants are pretreated by spraying with the antagonist, dissolved in a phosphate buffer solution (10-20 mM, pH 7.0) including 0.1% commercially available Kinetic™ as surfactant, and left to incubate for a predetermined time, usually between 6 and 24 h. The plants or explants are then further exposed for 24 h to ethylene gas (5 to 20 μL L^−1). The plants or explants are then ventilated and incubated for the required time under controlled conditions. At the end of the experiment the percentage of abscission is determined. (2) Chlorophyll degradation—This is a standard model for studying senescence. Plant material (whole plants, excised leaves or leaf discs) are pretreated. In cotton, tobacco and wheat, when WS-CPD is tested, the whole plants or explants are pretreated by spraying with the antagonist, dissolved in phosphate buffer solution (10-20 mM, pH 7.0) including 0.1% commercially available Kinetic™ surfactant, and left to incubate for a predetermined time, usually between 6 and 241. […] At the end of the experiment a dimethylsulfoxide (DMSO) extract of the plant tissue is prepared, and the chlorophyll content of the extract is determined by spectrophotometric analysis. […] The extent of ethylene-induced epinasty of leaves is determined by measuring the change of the angle between the petiole and the stem shoot or blade. […]

SMILES: O=C([O-])CCC1=CC1.[Na+] [WS-CPD, 3-cyclopropyl-1-enyl-propanoic sodium salt]
- Ethephon-induced flag leaf epinasty (wheat plants): partly protected
- reversal of the inhibitory effect of ethylene on third leaf growth (wheat seedlings; WS-CPD 40 μg mL^−1, 1.6 ethylene): 100%
- inhibitory effect of ethylene on third leaf growth (wheat seedlings; WS-CPD 4 and 40 μg mL^−1 spray at day 10, ethylene 1.6 to 40 μg L^−1 (so in the source) 24 h later for two days): effectively antagonized
- abscission percentage of explants ([1]; WS-CPD 300 μg mL^−1): lower than the air control treatment
- decrease of abscission ([1]; WS-CPD 10 to 30 μg mL^−1, throughout the experiment, ethylene-treated explants): about 20%
